Assay results published in US9820968B2, “Anti-leukemic agent useful for inducing differentiation in myeloid leukemia cells” (Council of Scientific and Industrial Research, priority 2013, dated 2017).
pIC50: −log10 of the molar value. Like-named read-outs stand apart in the source and are kept apart here.

How the values were obtained:
HL60 cells [1] = test: FACS flow cytometry for cd11b in HL60 cells (differentiation control); type: cell-based; conditions: HL60, 1 uM ATRA, 72 hrs
Description: (§1) K562 cells were treated with 1 μM (Subapoptotic dose) and 7.5 μM ORM (Apoptotic dose) for 24 h and 48 hrs. Post 24 h and 48 h treatment, cells were analyzed in FACS-flow cytometer for the presence of myeloid differentiation marker cd11b (FIG. 2). In parallel, HL60 cells were also treated with 1uM All-Trans-Retinoic Acid (ATRA) for 72 hrs which served as control for induction of differentiation. […] Isotype IgG-PE antibody served as negative control.

[2] = test system: myeloid leukemia cells (U937, HL60, K562); test: MTT cell viability assay, myeloid leukemia cells; type: cell-based; conditions: leukemic cells (U937, HL60, K562), read-out: 50% growth inhibitory concentration (IC50)
Description: FIG. 1: ORM induces cell toxicity in myeloid leukemia cells: (a) Chemical structure of ormeloxifene. […] Assay was performed on 3 replicates for each treatment and repeated twice.
(§2) 2. MTT assay: Post 6 h synchronization, 1×10^4 cells per well were incubated at 37° C. in 96-well plastic plates with test drugs containing 10% FBS in an environment of 5% humified CO2. After 48 hrs, cell viability was assessed by the ability of metabolically active cells to reduce tetrazolium salt […] to coloured formazan compounds. The absorbance of the samples was measured with a specific enzyme-linked immunosorbent assay (ELISA) reader at 560 nm.
(§3) To calculate 50% growth inhibitory concentration (IC50) of ormeloxifene, various myeloid leukemia cells (U937, HL60, K562) and HEK293T as control were assayed with different doses of ormeloxifene for cell viability in MTT Assay. […] Various apoptosis assays were performed in myeloid leukemia cells upon treatment with ormeloxifene that induces G0-G1 phase growth arrest and caspase mediated apoptosis in myeloid leukemia via ERK activation.

HEK293T = test: MTT cell viability assay, HEK293T control; type: cell-based; conditions: Homo sapiens, HEK-293T, 293T control cells, 48 hrs, read-out: 50% growth inhibitory concentration (IC50)
Description: as §2, §3

K562 cells [3] = test: FACS flow cytometry for cd11b in K562 cells; type: cell-based; conditions: 24 and 48 h
Description: (§4) 7. FACS analysis: Cells were treated with 1 uM ORM for 24 h and 48 h. Then they were washed with 1×PBS and resuspended in antibody solution along with their respective IgG isotype control for 15-20 min as per manufacturer's protocol. Cells were washed once with PBS and were resuspended in 500 ul of PBS. After this flow cytometry was done for PI labeled cells for cd11b and cd114 differentiation markers (BD Biosciences).
as §1

K562 cells [4] = test: Giemsa staining morphology, K562 cells; type: cell-based
Description: (§5) 3. Giemsa staining: Giemsa stain is used to differentiate nuclear and cytoplasmic morphology of blood cells. After induction with 1 uM ORM for 12 days cells were cytospun on slides at 800 rpm for 5 min and were air dried. Cells were stained with Giemsa stain (Sigma) as per manufacturer's protocol. Cells were visualized microscopically for the morphological changes.
To further corroborate the differentiation inducing potential of ORM, K562 cells were again treated with 1.0 uM ORM and vehicle for 12 days followed by cytospin and staining with Giemsa for assessment of morphological changes. […] It is noteworthy to mention here that at higher doses (5 uM to 7.5 uM) there is early onset of myeloid differentiation (72 h for 5 uM and 24,48 h for 7.5 uM) with reduced no. of cells which is likely due to apoptotic effects of ORM at higher dose. In contrary, at lower doses (1 uM) differentiation is observed after longer duration (6-15 days) with quite reduced apoptotic effect.

K562 cells [5] = test: NBT reduction assay, K562 cells; type: cell-based; conditions: K562, 7.5 uM ORM 24 h and 48 hrs, 1 uM 6 days
Description: 4. NBT assay: The NBT Assay relies on the accumulation of blue black formazan precipitate. The membrane permeable, water soluble, yellow NBT is reduced to blue black formazan by O^−2, which is generated by activated neutrophils/phagocytes, typically by PMA. PMA activates NADPH oxidase by enhancing protein kinase C (PKC) and thus stimulates production of ROS (reactive oxygen species). After induction with 7.5 uM ORM for 24 h and 48 hr and with 1 uM ORM for 6 days cells were incubated in NBT solution for 15 min. at 37° C. Cells were washed with PBS and were resuspended in 500 ul PBS and cytospun on slides and stained with safranin O for 1 min. Number of cells showing blue-purple colouration were counted under microscope.
In order to further confirm the ORM induced differentiation in myeloid leukemia cells, Nitro Blue Tetrazolium (NBT) reduction assay is carried out which is a biochemical assay wherein activated granulocytes can reduce NBT to insoluble purple blue colour precipitates. Further, because ORM induces apoptosis at 7.5 uM in K562 cells; we treated K562 cells with 7.5 uM for 24 h and 48 hrs and 1 uM doses for longer duration, 6 days. Cells were subjected for NBT reduction analysis. […] This further confirmed differentiation inducing potential of ORM.

K562 cells [6] = test: ROS generation by flow cytometry (DCF-DA), K562 cells; type: cell-based; conditions: K562, 1 uM ORM
Description: FIG. 5: ORM at a dose of 1 uM induces ROS generation: A property of activated neutrophils: Flow cytometry analysis was performed for the ROS generation in K562 cells after treatment with 1 uM ORM for 24 h and 48 h. Cells were labeled with DCF-DA dye and fluorescence was measured.
Furthermore, ORM induces granulocytic differentiation in K562 cells, it should lead to terminal differentiation of these cells to activated neutrophils. To substantiate further the induction of granulocytic differentiation and neutrophil formation, we measured the ROS generation, which is a property of activated neutrophils by FACS flow cytometer.

K562 cells [7] = test: Real time and semi quantitative PCR of differentiation markers, K562 cells; type: cell-based
Description: 5. Quantitative PCR (Real Time) and semi quantitative PCR Analysis: After induction of cells with ORM for indicated time points cells were harvested and RNA was isolated using Trizol reagent. Trizol was added to 1×10^6 cells for 5 min at room temp. Lysed cells were collected in micro centrifuge tubes and shaken vigorously for 15 sec, and incubated for 3 min at RT. 200 μl of chloroform was added to each sample and incubated yet again for 5 min at RT. Cells were centrifuged at 15,000 rpm for 15 min at 4° C. Supernatant was collected in fresh tube; 1 ml isopropanol was added and incubated for 10 min at RT. Pellet was washed once with 70% ethanol and RNA concentration was quantified. Further, RNA was retro-transcribed into cDNA and subsequently used for quantitative PCR analysis on Roche Light Cycler 480 using SYBR green master mix from Applied Biosystems. Statistical analysis was performed using ΔΔCT method. Reverse transcriptase PCR was done to check the mRNA level expression of GCSFr qualitatively. RT-PCR analysis was performed using standardized PCR protocol on BioRad C1000 Thermal Cycler.

[8] = test system: primary cells isolated from CML patients; test: FACS for cd11b and cd114 in primary mononuclear cells from CML patients; type: cell-based, human; conditions: CML patient mononuclear cells, 1 uM ORM, 24 and 48 hr
Description: FIG. 6: ORM induces myeloid differentiation in primary cells isolated from CML patients PBMCs were isolated from patient samples and were analyzed by FACS for cd11b positive cells.
6. PBMC separation from patient sample: 10 ml peripheral blood was collected by venipuncture heparin-containing 20 ml vials. Peripheral blood mononuclear cells were isolated using density gradient centrifugation with Ficoll-Paque (1.077 g/ml). Peripheral blood was mixed in 1:1 v/v of MACS buffer and was fractionated through Ficoll-Paque. Mononuclear cells were collected from the interface, washed twice in MACS buffer and resuspended in RPMI 1640 at 37° C. in the humidified atmosphere of 5% CO2.
as §4, with “After this flow cytometry was done for PI labeled cells for cd11b and cd114 differentiation markers (BD Biosciences).” left out
Although recent studies using differentiation therapies in oncology have been successful for acute promyelocytic leukemia (APL) with the use of all-trans retinoic acid (ATRA) (S. Waxman, Leukemia, 2000, 14(3):491-496), little is known about exact mechanisms of differentiation. […] Cells were treated with 1 uM ORM and were analyzed for expression of cd11b and cd114 surface markers after 24 and 48 hr.

HL60 cells [9] = test: Morphology after long ORM treatment, HL60 cells; type: cell-based; conditions: HL60, 1 uM ORM, 12 and 15 days
Description: (§6) FIG. 7: ORM at 1 uM dose induces differentiation like morphology both in HL60 and U937 cells: (a) HL60 and (b) U937 cells were treated with 1 uM ORM for 12 and 15 days and there was change in the morphology of cells by decrease in the nuclear and cytoplasmic ratio and formation of multilobed nuclei which is typical for neutrophilic differentiation.
as §5
(§7) Profound granulocytic differentiation inducing property of ormeloxifene in K562 prompted us to investigate if ORM can also induce such differentiation in other myeloid leukemia cell lines. So we further chose HL60 and U937, a promyelocyte and myelomonocyte leukemia cell line. These cells differentiate to granulocyte lineage upon induction with all trans-retinoic acid (ATRA) and represent a very good model cell line for such differentiation assays. These cells were treated with 1 uM ORM for longer duration of 12 and 15 days followed by assessment of granulocytic/neutrophil like morphology.

U937 cells = test: Morphology after long ORM treatment, U937 cells; type: cell-based; conditions: U937, 1 uM ORM, 12 and 15 days
Description: as §6, §5, §7

[10] = test system: HL60, U937 and K562 cells; conditions: P. Pal et al., Proteomics 2011, read-out: IC50 inducing apoptosis; cited from earlier work
advanced breast cancer = conditions: cited from earlier work
Salmonella = conditions: Giri et al., Mutagenesis 1999; cited from earlier work
[11] = K562, 1 uM ORM, 24 and 48 h, real time PCR

SMILES: CC1=C(/C=C/C(C)=C/C=C/C(C)=C/C(=O)O)C(C)(C)CCC1 [ATRA, All-Trans-Retinoic Acid]
- cd11b early myeloid differentiation marker (HL60 cells [1]): increased

SMILES: COc1ccc2c(c1)OC(C)(C)C(c1ccccc1)C2c1ccc(OCCN2CCCC2)cc1 (stereo not drawn) [ORM, 3,4-trans-2,2-dimethyl-3-phenyl-4-p-(beta-pyrrolidinoethoxy)phenyl-7-methoxychroman]
- pIC50 ([2]; 48 h): ~5.12
- pIC50 ([2]; 48 hrs): ~5.15
- pIC50 (HEK293T): 4.60
- cells expressing cd11b marker (K562 cells [3]; K562, 1.0 uM ORM): increased percentage of cells expressing CD11b markers
- cells expressing cd11b marker (K562 cells [3]; K562, 7.5 uM ORM): Reduced number of cd11b expressing cells
- morphological changes (Giemsa) (K562 cells [4]; K562, 1.0 uM ORM, 12 days): differentiated cells having neutrophil like morphology were observed
- morphological changes (Giemsa) (K562 cells [4]; K562, 5 uM ORM, 72 hrs): neutrophil like morphological changes
- NBT reduction (K562 cells [5]): dramatic increase in NBT reduction
- ROS generation (K562 cells [6]): Significant upregulation in ROS generation
- C/EBP epsilon mRNA expression (K562 cells [7]; [11]): increased mRNA expression
- C/EBPalpha mRNA expression (K562 cells [7]; [11]): increased mRNA expression
- GCSFr mRNA expression (K562 cells [7]; [11]): increased mRNA expression
- cd11b mRNA expression (K562 cells [7]; [11]): increased mRNA expression
- GCSFr mRNA expression (K562 cells [7]; K562, 7.5 uM ORM, 24 h and 48 h, quantitative and semi quantitative PCR): modest upregulation
- level of GCSFr (K562 cells [7]; K562, Reverse transcriptase-PCR (FIG. 4f, g)): marked increase
- expression of cd11b surface marker [8]: significant upregulation
- expression of cd114 surface marker [8]: significant upregulation
- granulocytic/neutrophil like morphology (HL60 cells [9]): large number of cells with multilobed nucleus
- granulocytic/neutrophil like morphology (U937 cells): large number of cells with multilobed nucleus
- pIC50 [10]: 5.12
- overall response rate (advanced breast cancer; both male and female cases (4 male, 75 female)): 40.5%
- overall response rate (advanced breast cancer; female patients): 38.7%
- mutagenic effects of DMBA, CP, MMC and EMS (Salmonella): can reduce the mutagenic effects
